SMILES strings stand for the structures. Where a name gives a salt, the structure may show the parent alone.

The subject of the assay is Endogenous Huntingtin Protein (HTT). Description: Endogenous Huntingtin Protein Assay (ELISA-based MSD electrochemiluminescence). The format is cell-based. The conditions noted are these: Table 1. An outline of the steps: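 HTT protein in lysates was measured by electrochemiluminescence on the MSD platform. Rabbit monoclonal 5656S followed by SULFO-TAG anti-rabbit antibody served for detection after overnight 4 °C capture with MAB2166 or the polyglutamine-directed MW1 antibody.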
Background: An ELISA detects its analyte on a solid surface through an enzyme-linked reagent.
By IC50 is commonly meant the concentration that inhibits the measured activity by half. Lower therefore signals greater potency. Molecule `Cc1nc2c(F)cc(-c3cc(=O)n4cc(N5CCN[C@@H](C)C5)ccc4n3)cc2o1` [compound 306, 2-(4-fluoro-2-methyl-1,3-benzoxazol-6-yl)-7-[(3S)-3-methylpiperazin-1-yl]-4H-pyrido[1,2-a]pyrimidin-4-one] gave an IC50 of 0.1 to 0.5 µM.

Consider `Cc1cn2cc(-c3cc(=O)n4cc(C5CCN(C6CCC6)CC5)ncc4n3)ccc2n1` [compound 628, 7-(1-cyclobutylpiperidin-4-yl)-2-(2-methylimidazo[1,2-a]pyridin-6-yl)-4H-pyrazino[1,2-a]pyrimidin-4-one], for which the IC50 is 3 to 33 µM.

For `COc1ncc(-c2cc(=O)n3cc(N4CCNCC4)ccc3n2)cc1Cl` [compound 96, 2-(5-chloro-6-methoxypyridin-3-yl)-7-(piperazin-1-yl)-4H-pyrido[1,2-a]pyrimidin-4-one], the IC50 is 3 to 33 µM.

As for `Cc1nc(C2=CCNCC2)cn2c(=O)cc(-c3ccc4nn(C)cc4c3)nc12` [compound 791, 9-methyl-2-(2-methyl-2H-indazol-5-yl)-7-(1,2,3,6-tetrahydropyridin-4-yl)-4H-pyrazino[1,2-a]pyrimidin-4-one], the IC50 is under 0.1 µM.

As for `CCN(CC)C1CCN(c2ccc3nc(-c4cc5c(C)nc(C)cn5n4)cc(=O)n3c2)CC1` [compound 451, 7-[4-(diethylamino)piperidin-1-yl]-2-(4,6-dimethylpyrazolo[1,5-a]pyrazin-2-yl)-4H-pyrido[1,2-a]pyrimidin-4-one], the IC50 fell in the range of 3 to 33 µM.

Turning to `Cc1cc(C2CCN(C3CCC3)CC2)cn2c(=O)cc(-c3ccc4nn(C)cc4c3)nc12` [compound 710, 7-(1-cyclobutylpiperidin-4-yl)-9-methyl-2-(2-methyl-2H-indazol-5-yl)-4H-pyrido[1,2-a]pyrimidin-4-one], the IC50 is 0.1 to 0.5 µM.

For `COc1cc(-c2ccnc(O)c2)ccc1-c1cc(=O)n2cc(C3=CCNCC3)ccc2n1` [compound 849, 2-[4-(2-hydroxypyridin-4-yl)-2-methoxyphenyl]-7-(1,2,3,6-tetrahydropyridin-4-yl)-4H-pyrido[1,2-a]pyrimidin-4-one hydrochloride (1:1)], the IC50 was in the range of 3 to 33 µM.

Regarding `Cc1nc2ccc(-c3cc(=O)n4cc(N5CCNCC5)ccc4n3)cc2o1` [compound 133, 2-(2-methyl-1,3-benzoxazol-6-yl)-7-(piperazin-1-yl)-4H-pyrido[1,2-a]pyrimidin-4-one], the IC50 lay in the range of 0.5 to 1 µM.

With `Cc1cn(-c2cc(=O)n3cc(N4CCNCC4)ccc3n2)cn1` [compound 179, 2-(4-methyl-1H-imidazol-1-yl)-7-(piperazin-1-yl)-4H-pyrido[1,2-a]pyrimidin-4-one], the IC50 lay within 3 to 33 µM.

Consider `Cc1cn2cc(-c3cc(=O)n4cc(N5CCNCC5)ccc4n3)ccc2n1` [compound 109, 2-(2-methylimidazo[1,2-a]pyridin-6-yl)-7-(piperazin-1-yl)-4H-pyrido[1,2-a]pyrimidin-4-one], for which the IC50 lay in the range of 1 to 3 µM.

Regarding `Cc1cc(-c2cc(=O)n3cc(N4CCN(C)[C@@H](C)C4)ccc3n2)cc2cn(C)nc12` [compound 751, 2-(2,7-dimethyl-2H-indazol-5-yl)-7-[(3S)-3,4-dimethylpiperazin-1-yl]-4H-pyrido[1,2-a]pyrimidin-4-one], the IC50 is 3 to 33 µM.

As to `CCc1nc(C)cn2nc(-c3cc(=O)n4cc(C5CCN(CC)CC5)ncc4n3)cc12` [compound 655, 2-(4-ethyl-6-methylpyrazolo[1,5-a]pyrazin-2-yl)-7-(1-ethylpiperidin-4-yl)-4H-pyrazino[1,2-a]pyrimidin-4-one], the IC50 was 0.1 to 0.5 µM.

Consider `CCc1nc(C)cn2nc(-c3cc(=O)n4cc(N5CCN(CCO)CC5)ccc4n3)cc12` [compound 549, 2-(4-ethyl-6-methylpyrazolo[1,5-a]pyrazin-2-yl)-7-[4-(2-hydroxyethyl)piperazin-1-yl]-4H-pyrido[1,2-a]pyrimidin-4-one], for which the IC50 was in the range of 3 to 33 µM.

In the case of `Cn1cc2cc(-c3cc(=O)n4cc(N5CCNCC5)ncc4n3)ccc2n1` [compound 586, 2-(2-methyl-2H-indazol-5-yl)-7-(piperazin-1-yl)-4H-pyrazino[1,2-a]pyrimidin-4-one], the IC50 is 3 to 33 µM.

Regarding `Cc1ccc2nc(-c3cc(=O)n4cc(N5CCNCC5)ccc4n3)cn2c1` [compound 29, 2-(6-methylimidazo[1,2-a]pyridin-2-yl)-7-(piperazin-1-yl)-4H-pyrido[1,2-a]pyrimidin-4-one], the IC50 is 3 to 33 µM.

As for `Cc1cc(-c2cc(=O)n3cc(C4=CCNCC4)ccc3n2)nc2cnn(C)c12` [compound 860, 2-(1,7-dimethyl-1H-pyrazolo[4,3-b]pyridin-5-yl)-7-(1,2,3,6-tetrahydropyridin-4-yl)-4H-pyrido[1,2-a]pyrimidin-4-one hydrochloride (1:2)], the IC50 lay within 3 to 33 µM.

As for `Cc1nc2c(F)cc(-c3cc(=O)n4cc(N5CCNCC5)ccc4n3)cc2o1` [compound 305, 2-(4-fluoro-2-methyl-1,3-benzoxazol-6-yl)-7-(piperazin-1-yl)-4H-pyrido[1,2-a]pyrimidin-4-one], the IC50 lay within 0.1 to 0.5 µM.

As to `Cc1cn2cc(-c3cc(=O)n4cc(N5CCN(C)CC5)ccc4n3)cc(C)c2n1` [compound 868, 2-(2,8-dimethylimidazo[1,2-a]pyridin-6-yl)-7-(4-methylpiperazin-1-yl)-4H-pyrido[1,2-a]pyrimidin-4-one], the IC50 was in the range of 1 to 3 µM.

Take `Cc1cn2cc(-c3cc(=O)n4cc(C5CCN(CCO)CC5)ncc4n3)ccc2n1` [compound 581, 7-[1-(2-hydroxyethyl)piperidin-4-yl]-2-(2-methylimidazo[1,2-a]pyridin-6-yl)-4H-pyrazino[1,2-a]pyrimidin-4-one]: the IC50 fell in the range of 1 to 3 µM.

Regarding `Cc1nc(-c2cc(=O)n3cc(C4=CCNCC4)ccc3n2)cc2cnn(C)c12` [compound 861, 2-(1,7-dimethyl-1H-pyrazolo[3,4-c]pyridin-5-yl)-7-(1,2,3,6-tetrahydropyridin-4-yl)-4H-pyrido[1,2-a]pyrimidin-4-one hydrochloride (1:2)], the IC50 was 3 to 33 µM.

Molecule `Cc1cn2cc(-c3ccc4nc(C5CCNCC5)cc(=O)n4c3)ccc2n1` [compound 409, 7-(2-methylimidazo[1,2-a]pyridin-6-yl)-2-(piperidin-4-yl)-4H-pyrido[1,2-a]pyrimidin-4-one] gave an IC50 of 1 to 3 µM.

For `Cc1csc(-c2cc(=O)n3cc(N4CCNCC4)ccc3n2)n1` [compound 163, 2-(4-methyl-1,3-thiazol-2-yl)-7-(piperazin-1-yl)-4H-pyrido[1,2-a]pyrimidin-4-one], the IC50 lay within 3 to 33 µM.

With `Cc1cn2cc(-c3cc(=O)n4cc(C5CCNCC5)ncc4n3)ccc2n1` [compound 585, 2-(2-methylimidazo[1,2-a]pyridin-6-yl)-7-(piperidin-4-yl)-4H-pyrazino[1,2-a]pyrimidin-4-one], the IC50 was in the range of 0.5 to 1 µM.

Regarding `CCN1CCC(c2cn3c(=O)cc(-c4ccc5nn(C)cc5c4)nc3cn2)CC1` [compound 568, 7-(1-ethylpiperidin-4-yl)-2-(2-methyl-2H-indazol-5-yl)-4H-pyrazino[1,2-a]pyrimidin-4-one], the IC50 was in the range of 1 to 3 µM.

`Cc1cn2nc(-c3cc(=O)n4cc(N5C[C@@H](C)N[C@@H](C)C5)ccc4n3)cc2c(C)n1` [compound 131, 7-[(3R,5S)-3,5-dimethylpiperazin-1-yl]-2-(4,6-dimethylpyrazolo[1,5-a]pyrazin-2-yl)-4H-pyrido[1,2-a]pyrimidin-4-one] gave an IC50 of 3 to 33 µM.

As to `CCN1CC=C(c2ccc3nc(-c4ccn5nc(C)cc5c4)cc(=O)n3c2)CC1` [compound 858, 7-(1-ethyl-1,2,3,6-tetrahydropyridin-4-yl)-2-(2-methylpyrazolo[1,5-a]pyridin-5-yl)-4H-pyrido[1,2-a]pyrimidin-4-one], the IC50 fell in the range of 1 to 3 µM.

For `CCc1nc(C)cn2nc(-c3cc(=O)n4cc(C5CCN(C)CC5)cc(C)c4n3)cc12` [compound 774, 2-(4-ethyl-6-methylpyrazolo[1,5-a]pyrazin-2-yl)-9-methyl-7-(1-methylpiperidin-4-yl)-4H-pyrido[1,2-a]pyrimidin-4-one], the IC50 was in the range of 3 to 33 µM.

For `Cc1nc(C2CCNCC2)cn2c(=O)cc(-c3ccc4nn(C)cc4c3)nc12` [compound 796, 9-methyl-2-(2-methyl-2H-indazol-5-yl)-7-(piperidin-4-yl)-4H-pyrazino[1,2-a]pyrimidin-4-one], the IC50 was under 0.1 µM.

`CCc1nc(C)cn2nc(-c3cc(=O)n4cc(N5CCN[C@@H](C)C5)cc(C)c4n3)cc12` [compound 787, 2-(4-ethyl-6-methylpyrazolo[1,5-a]pyrazin-2-yl)-9-methyl-7-[(3S)-3-methylpiperazin-1-yl]-4H-pyrido[1,2-a]pyrimidin-4-one]: the IC50 was in the range of 3 to 33 µM.

In turn, `Cc1cc(N2CCN[C@@H](C)C2)cn2c(=O)cc(-c3ccc4nn(C)cc4c3)nc12` [compound 756, 9-methyl-2-(2-methyl-2H-indazol-5-yl)-7-[(3S)-3-methylpiperazin-1-yl]-4H-pyrido[1,2-a]pyrimidin-4-one] returned an IC50 of 0.1 to 0.5 µM.

Regarding `Cc1cn2cc(-c3cc(=O)n4cc(C5=CCN(C(C)C)CC5)ncc4n3)cc2c(C)n1` [compound 479, 2-(1,3-dimethylpyrrolo[1,2-a]pyrazin-7-yl)-7-[1-(propan-2-yl)-1,2,3,6-tetrahydropyridin-4-yl]-4H-pyrazino[1,2-a]pyrimidin-4-one], the IC50 is 3 to 33 µM.

In turn, `C[C@H]1CN(c2ccc3nc(-c4cnn(C)c4)cc(=O)n3c2)CCN1` [compound 191, 7-[(3S)-3-methylpiperazin-1-yl]-2-(1-methyl-1H-pyrazol-4-yl)-4H-pyrido[1,2-a]pyrimidin-4-one] returned an IC50 of 3 to 33 µM.

Regarding `Cc1cn2cc(-c3ccc4nc(C5CCN(C)CC5)cc(=O)n4c3)cc(F)c2n1` [compound 462, 7-(8-fluoro-2-methylimidazo[1,2-a]pyridin-6-yl)-2-(1-methylpiperidin-4-yl)-4H-pyrido[1,2-a]pyrimidin-4-one], the IC50 was in the range of 1 to 3 µM.

`Cc1cn2cc(-c3cc(=O)n4cc(C5CCNCC5)ncc4n3)cc(C)c2n1` [compound 588, 2-(2,8-dimethylimidazo[1,2-a]pyridin-6-yl)-7-(piperidin-4-yl)-4H-pyrazino[1,2-a]pyrimidin-4-one] displayed an IC50 of 0.5 to 1 µM.

Values taken from patent US11382918B2, “Methods for treating Huntington's Disease” (PTC Therapeutics, Inc., priority 2017, dated 2022).
